The values that follow come from article PMC6600393, “Synthesis and Cytostatic Effect of 3’-deoxy-3’-C-Sulfanylmethyl Nucleoside Derivatives with D-xylo Configuration” (Molecules, 2019).

Entries after “also recorded” stand apart in the source; their conditions may differ.

As usually defined, the IC50 is the point on the concentration scale where inhibition reaches its midpoint.

One series has as its system SCC. More on the design: method as in PMID 20947470. To be noted: positive control; ref [36]; cited from earlier work.
In series [1] the test system is HaCaT (human keratinocyte) cell line. Briefly: MTT cell viability assay on HaCaT cells. It counts as cell-based. To be noted: for IC50: Homo sapiens, HaCaT, 48 h. As for the experimental part: (§1) For the investigation of the cytotoxic effect of nucleoside analogues we used healthy human keratinocyte (HaCaT) and tumorous squamous carcinoma SCC-VII cell lines. In the experiments, a standard citotoxicity assay, the MTT assay, was used in a 96-well plate. Importantly, different cell numbers were used in the case of the two different cell lines. The HaCaT cells were seeded 10^4/well concentration while the SCC-VII cells were seeded 5000/well concentration on the plate. In both cases the cells were treated with the nucleoside analogues at ~50% confluence.
The HaCaT cell line was derived from human skin, the cells spontaneously transformed in vitro during long time incubation. Cells were cultured in DMEM medium (Biocenter, Szeged, Hungary) containing 10% fetal bovine serum (FBS, Hyclon, Logan, UT) and 1% antibiotic-antimycotic mix (Penicillin–Streptomycin–Neomycin).
(§2) Cell cultures had been kept under the same conditions during the experiments. Cells were stored at 37 °C, 95% humidity, and 5% CO2 in an incubator. During the MTT-assay, different starter cell number was used because of the cell cycle differences; HaCaT was started with 10.000/well meanwhile SCC VII with 5000/well. After passage, 24 h was assured for the cells to the adhesion. Then incubated with the compounds for 48 h. The experiments were performed in 96 well plates.
(§3) For the dilution of different concentrations of nucleoside analogues were prepared with DMSO 1% (v/v) and DMEM / DMEM-F12/Ham’s F12 cell culture medium.
(§4) After three days of incubation in the cell culture flask, cells were trypsinised into single cell suspensions. Aliquots (200 μL) of each cell suspension were placed in wells of 96-well-plates (Biocenter, Szeged, Hungary). Preliminary tests were conducted with cell numbers 5000 (SCC-VII) and 10,000 (HaCaT) per well. We have been tested five concentrations of each nucleoside analogues (20-10-5-2.5-1.25 µg/mL). The nucleoside analogues were dissolved in DMSO (1 v/v%) and DMEM/ DMEM-F12/Ham’s F12 were added to the wells to produce the required concentrations and the cells were similarly incubated for a further 48 h.
(§5) MTT (Sigma Aldrich, Budapest, Hungary) solution (0.5 mg/mL in PBS) 100 µL was added to each well. The plates were incubated for 1–2 h at 37 ^◦C, the wells aspirated, and MTT formazan extracted with 100 µL of DMSO aided by gentle agitation on a shaker. After 10 min at room temperature, the absorbances were read at 570 nm by an automatic plate reader (WALLAC Victor 2 1420 spectrophotometer), the instrument having been blanked beforehand on a row to which cells had not been added. Percentage viability (respiratory competence) of the population of cells in each well was expressed as: (Absorbance of treated cells/Absorbance of control cells) × 100. IC50 values of the nucleoside analogues were determined by Graphpad.
For orientation: Formazan colour is commonly taken as a measure of viable cells.

The subject of series [2] is SCC-VII (mouse squamous carcinoma) cell line. Briefly: MTT cell viability assay on SCC-VII cells. Format: cell-based. As to conditions: for IC50: Mus musculus, 48 h. As to the method:
as §1
SCC-VII is a carcinoma tumor that originally arose in the abdominal wall of C3H mice in Dr. Herman Suit’s laboratory at Harvard University, Boston, Massachusetts. SCC VII cells were grown in Dulbecco’s Modified Eagle’s Medium Nutrient Mixture (DMEM-HAM’S F12) (Sigma-Aldrich) supplemented with 2 mM L-glutamine, 23 mM NaHCO3, 100 U/mL penicillin, 100 U/mL streptomycin 1% non-essential amino acids and 10% fetal bovine serum.
as §2, §3, §4, §5

Series [3] concerns HaCaT cells. Briefly: Time-lapse video-microscopy: mother cell size, HaCaT. It counts as cell-based, human. As for the experimental part:
Dynamic functional and morphological effects of compound 10 was investigated via time-lapse (1 frame/min) videomicroscopy under standard cell-breeding conditions. Low intensity, near-infrared (NIR) 940 nm illumination was used, for reduced phototoxicity. Parallel experiments were done in the same CO2 incubator, using two custom-built inverted microscope equipped with sensitive charge-coupled device (CCD) sensors. […] Image sequences were processed and quantitatively analyzed using NIH ImageJ open-source software-bundle. Cell size, cellular generation time, and cell growth of HaCaT and SCC cells were analyzed. Time-lapse video-microscopy record about the effect of 10 and DMSO control on HaCaT and SCC cell lines are available in Supplementary Materials. […]
Mother cells size measurement: • Opening the image sequence in 8-bit format. • Stack Deflicker: The Stack Deflicker calculates the average grey value for each frame and normalizes all frames so that they have the same average grey level as a specified frame of the stack. […] If a region of the stack is selected the average frame intensity will be calculated from this region. • Changing the brightness/contrast, if it is neccesary. • Subtrack background: Removes smooth continuous backgrounds from gels and other images. […]

In series [4] the test system is SCC cells. Briefly: Time-lapse video-microscopy: mother cell size, SCC. It counts as cell-based, mouse. As to the method: (§6) Dynamic functional and morphological effects of compound 10 was investigated via time-lapse (1 frame/min) videomicroscopy under standard cell-breeding conditions. Low intensity, near-infrared (NIR) 940 nm illumination was used, for reduced phototoxicity. Parallel experiments were done in the same CO2 incubator, using two custom-built inverted microscope equipped with sensitive charge-coupled device (CCD) sensors. […] Image sequences were processed and quantitatively analyzed using NIH ImageJ open-source software-bundle. Cell size, cellular generation time, and cell growth of HaCaT and SCC cells were analyzed. Time-lapse video-microscopy record about the effect of 10 and DMSO control on HaCaT and SCC cell lines are available in Supplementary Materials.
Each cell line was treated with 17.0 µM solution of compound 10, dissolved in 1% (v/v) DMSO and diluted with cell culture media before application. Then, 1% (v/v) DMSO was used as control. […]
Mother cells size measurement: • Opening the image sequence in 8-bit format. • Stack Deflicker: The Stack Deflicker calculates the average grey value for each frame and normalizes all frames so that they have the same average grey level as a specified frame of the stack. […] If a region of the stack is selected the average frame intensity will be calculated from this region. • Changing the brightness/contrast, if it is neccesary. • Subtrack background: Removes smooth continuous backgrounds from gels and other images. […] A ball of given radius is rolled over the bottom side of this surface; the hull of the volume reachable by the ball is the background to be subtracted. • Treshold: Use this tool to automatically or interactively set lower and upper threshold values, segmenting grayscale images into features of interest and background. • Divided cells were selected on the binary image sequence based on their circularity determined by area/perimeter ratio. • Bigger pre-division mother cells were separated from smaller post-division daughter cells. • Pixel size was calibrated with Burker chamber. • Area calculation from pixel^2 to µm^2.

Series [5] has as its system HaCaT cells. As to the kind of experiment: Time-lapse video-microscopy: generation time, HaCaT. It counts as cell-based, human. As for the experimental part: as §6
For the investigation of the effect of compound 10 on cell-cycle, cellular generation times were measured from time-lapse image sequences.
In LTS video-microscopy studies, ~500.000/350.000 starting cell numbers (T-25 cell culture flask) had been used. Cell cultures had been treated with compound 10 using the IC50 concentration corresponding to the SCC VII.
TLS system architecture: Using the TLS system, various parameters had been tested. Control, DMSO control, and IC50 concentration of compound 10 compared to the above. Based on literature data, 1% (v/v) is the amount that is tolerated even without significant change in cells. […]

The subject of series [6] is HaCaT cells. As to the kind of experiment: DAPI fluorescent microscopy of nucleus morphology, HaCaT. It counts as cell-based, human. As to conditions: 17.0 µM, 48 h, vs DMSO control. As to the method:
(§7) In our experiments 4’,6-diamidino-2-phenylindole (DAPI) fluorescent DNA dye has been used for studying the cell nucleus morphology as an indicator of genotoxicity. The HaCaT and SCC cells were treated with DMSO and compound 10, fixed and stained with DAPI, then examined with fluorescent microscopy (Figure 7 and Figure 8).
(§8) For fluorescence staining, cells were breeded in the ibidi microscope slide chamber. The sample preparation process was similar to that of TLS studies, except that after 48 h the samples were fixed with PFA and washed with PBS and left to dry at room temperature overnight. DAPI dye was used for fluorescencnt labbelling of A-T rich regions of DNA.
(§9) Dehydrated slides containing fixated cells were mounted in 35 μL DAPI-Antifade Medium under 24 × […] coverslips. Fluorescence of DAPI (4′,6-diamidino-2-phenylindole) was monitored by fluorescence microscopy (Carl Zeiss Compound Universal Microscope III RS).

Series [7] relates to SCC cells. Briefly: DAPI fluorescent microscopy of nucleus morphology, SCC. To be noted: 17.0 µM, 48 h, vs DMSO control. It counts as cell-based, mouse. As for the experimental part: as §7, §8, §9

`O=c1[nH]cc(F)c(=O)[nH]1` [Compound 5-FU, 5-fluorouracil]: in the series with SCC, the IC50 is 60.7 ± 8.45 µM.

On to `CCCCSC[C@@H]1[C@@H](O[Si](C)(C)C(C)(C)C)[C@H](n2cc(C)c(=O)[nH]c2=O)O[C@@H]1CO[Si](C)(C)C(C)(C)C` [Compound 10, 1-[3’-Deoxy-3’-C-(n-butylsulfanylmethyl)-2’,5’-di-O-(tert-butyldimethylsilyl)-β-D-xylofuranosyl]-thymine], for which the half-maximal inhibitory concentration (IC50) in series [1] was 27.9 ± 1.85 µM; in series [2], 17 ± 1.55 µM. Also, the “SI (selectivity index)” value in series [2] (HaCaT IC50/SCC IC50) was found to be 1.64. In the series with HaCaT cells [3] (17.0 µM), the “mother cell size-reduction vs. DMSO” value worked out at 9%. Besides, the “Treated Cells Size (mother cells)” value in the series on HaCaT cells [3] (17.0 µM compound 10, n = 15) is reported as 21.60 ± 1.93 µm^2; in the series with SCC cells [4] (SCC, 17.0 µM compound 10, n = 15), 21.44 ± 1.42 µm^2. Further, the “overall size change difference between the two cell lines” value with SCC cells [4] (HaCaT vs SCC mother cells, 17.0 µM) was ~ 21%. Moreover, the “Treated/DMSO Difference (mother cell size)” value with SCC cells [4] (SCC, 17.0 µM, (treated cells size/DMSO control cell size)*100-100) is 12.8%. In the series on HaCaT cells [5] (17.0 µM), the “Treated/DMSO Difference (generation time)” value is 20.8%. The “Treated Cells Gen. Time” value with HaCaT cells [5] (17.0 µM compound 10, n = 15) is listed as 21.67 ± 1.01 h. The “nucleus morphology (DAPI)” value in the series with HaCaT cells [6] is given as “no apparent difference”. In addition, the “nucleus morphology (DAPI), genotoxicity” value in the series with SCC cells [7] is listed as “genotoxic effect”.

For the compound `CC(=O)OCC1OC(SCC2C(CO[Si](C)(C)C(C)(C)C)OC(n3cc(C)c(=O)[nH]c3=O)C2O[Si](C)(C)C(C)(C)C)C(OC(C)=O)C(OC(C)=O)C1OC(C)=O` (centres unmarked) [Compound 4], the concentration for half-maximal inhibition (IC50) in series [1] and in series [2] was greater than 20 mg/L in each case. The “HaCaT IC50” value in series [1] (MTT, 48 h incubation, 10,000 cells/well, '-' = no cytotoxicity at 20 µg/mL) was “no cytotoxic effect; also recorded: no cytotoxicity; also recorded: complete loss of activity”. For the same compound, the “SCC IC50” value in series [2] (MTT, 48 h incubation, 5000 cells/well, '-' = no cytotoxicity at 20 µg/mL) is given as “no cytotoxic effect; also recorded: no cytotoxicity; also recorded: complete loss of activity”.
